Measured values reported in patent EP4778932A1 (priority 2023, dated 2025).
Where two headings read alike, the source gives them in different places.

Assays:
Type in all cases: cell-based
NCI-N87 = assay: cells; conditions: Homo sapiens, read-out: IC50 (nM) NCI-N87
Experimental: (§1) MDA-MB-231, OV90, and NCI-N87 cells at defined cell densities (1,500 cells per well, 80 µL volume) were seeded into 96-well plates. The cells were cultured overnight in a constant-temperature incubator (37°C, 5% CO2). Ecteinascidin derivative solutions at a maximum concentration of 2 mM were first prepared in DMSO, and serial 1:4 gradient dilutions were performed. 1 µL of each DMSO-prepared dilution was added to 99 µL of PBS containing 10% FBS per well and mixed thoroughly. The diluted solutions (2 µL of diluted solution and 18 µL of PBS containing 10% FBS per well) were then co-incubated with the cells (37°C, 5% CO2) for five days, after which CellTiter-Glo reagent (40 µL per well) was added, and […] values were measured using an i3x microplate reader.

OV90 = assay: cells; conditions: Homo sapiens, OV-90, 120 h, read-out: IC50 (nM) OV90
Experimental: as §1

MDA-MB-231 = assay: cells; conditions: Homo sapiens, read-out: IC50 (nM) MDA-MB-231
Experimental: as §1

[1] = tested on: MDA-MB-231, OV90, and NCI-N87 cells; assay: Tumor cell proliferation inhibition assay of novel ecteinascidin derivatives, summary over the three cell lines; conditions: compared with trabectedin and lurbinectedin
Experimental: as §1, with “The” for “MDA-MB-231, OV90, and NCI-N87 cells at defined cell densities (1,500 cells per well, 80 µL volume) were seeded into 96-well plates. The”

[2] = 120 h, NCI-N87 cells, five days co-incubation
[3] = OV90 cells, five days co-incubation
[4] = 120 h, MDA-MB-231 cells, five days co-incubation

| Compound | IC50 (NCI-N87; [2]) | IC50 (OV90; [3]) | IC50 (MDA-MB-231; [4]) | in-vitro cytotoxic activities [1] | IC50 (NCI-N87; NCI-N87, 120 h) | IC50 (OV90) | IC50 (MDA-MB-231; MDA-MB-231, 120 h) |
| --- | --- | --- | --- | --- | --- | --- | --- |
| COc1cc2c(cc1N)[C@@H](CC1CC1)CN[C@]21CS[C@@H]2c3c(OC(C)=O)c(C)c4c(c3[C@H](COC1=O)N1[C@@H]2[C@H]2c3c(cc(C)c(OC)c3O)C[C@@H]([C@@H]1C#N)N2C)OCO4 [P262] | 1 to 10 nM | 1 to 10 nM | 1 to 10 nM | – | – | – | – |
| COc1c(C)cc2c(c1O)[C@@H]1[C@@H]3[C@@H]4SC[C@]5(NCC(C)(C)c6cc(N)c(F)cc65)C(=O)OC[C@@H](c5c6c(c(C)c(OC(C)=O)c54)OCO6)N3[C@@H](C#N)[C@H](C2)N1C [T3] | < 1 nM | < 1 nM | < 1 nM | superior to or comparable to those of trabectedin and lurbinectedin | – | – | – |
| COc1cc2c(cc1N)C(C)(C)CN[C@]21CS[C@@H]2c3c(OC(C)=O)c(C)c4c(c3[C@H](COC1=O)N1[C@@H]2[C@H]2c3c(cc(C)c(OC)c3O)C[C@@H]([C@@H]1O)N2C)OCO4 [P52] | < 1 nM | < 1 nM | < 1 nM | superior to or comparable to those of trabectedin and lurbinectedin | – | – | – |
| COc1c(C)cc2c(c1O)[C@@H]1[C@@H]3[C@@H]4SC[C@]5(NCCc6cc(NC(=O)C7(O)CC7)c(F)cc65)C(=O)OC[C@@H](c5c6c(c(C)c(OC(C)=O)c54)OCO6)N3[C@@H](C#N)[C@H](C2)N1C [T4] | < 1 nM | < 1 nM | < 1 nM | superior to or comparable to those of trabectedin and lurbinectedin | – | – | – |
| COc1c(C)cc2c(c1O)[C@@H]1[C@@H]3[C@@H]4SC[C@]5(NCCc6cc(N)c(N(C)C)cc65)C(=O)OC[C@@H](c5c6c(c(C)c(OC(C)=O)c54)OCO6)N3[C@@H](C#N)[C@H](C2)N1C [P5] | – | – | – | – | 1 to 10 nM | 1 to 10 nM | 1 to 10 nM |
| COc1c(C)cc2c(c1O)[C@@H]1[C@@H]3[C@@H]4SC[C@]5(NCCc6cc(NC(=O)CO)cc(O)c65)C(=O)OC[C@@H](c5c6c(c(C)c(OC(C)=O)c54)OCO6)N3[C@@H](C#N)[C@H](C2)N1C [T13] | 10 to 200 nM | 10 to 200 nM | 10 to 200 nM | – | – | – | – |
| CNc1cc2c(cc1OC)[C@@]1(CS[C@@H]3c4c(OC(C)=O)c(C)c5c(c4[C@H](COC1=O)N1[C@@H]3[C@H]3c4c(cc(C)c(OC)c4O)C[C@@H]([C@@H]1C#N)N3C)OCO5)NCC2 [T16] | < 1 nM | 1 to 10 nM | 1 to 10 nM | – | – | – | – |
| COc1cc2c(cc1NC(=O)[C@H]1C[C@@H](O)C1)CCN[C@]21CS[C@@H]2c3c(OC(C)=O)c(C)c4c(c3[C@H](COC1=O)N1[C@@H]2[C@H]2c3c(cc(C)c(OC)c3O)C[C@@H]([C@@H]1C#N)N2C)OCO4 [P74] | < 1 nM | < 1 nM | < 1 nM | superior to or comparable to those of trabectedin and lurbinectedin | – | – | – |
| COc1c(C)cc2c(c1O)[C@@H]1[C@@H]3[C@@H]4SC[C@]5(NCCc6c5ccc(NC(=O)CO)c6O)C(=O)OC[C@@H](c5c6c(c(C)c(OC(C)=O)c54)OCO6)N3[C@@H](C#N)[C@H](C2)N1C [T7] | 1 to 10 nM | 1 to 10 nM | 1 to 10 nM | – | – | – | – |
| COc1cc2c(cc1NC(=O)C(O)C1CC1)CCN[C@]21CS[C@@H]2c3c(OC(C)=O)c(C)c4c(c3[C@H](COC1=O)N1[C@@H]2[C@H]2c3c(cc(C)c(OC)c3O)C[C@@H]([C@@H]1C#N)N2C)OCO4 (some centres unmarked) [P58] | < 1 nM | < 1 nM | < 1 nM | superior to or comparable to those of trabectedin and lurbinectedin | – | – | – |
| COc1c(C)cc2c(c1O)[C@@H]1[C@@H]3[C@@H]4SC[C@]5(NCC(C)(C)c6c5ccc(N)c6OC)C(=O)OC[C@@H](c5c6c(c(C)c(OC(C)=O)c54)OCO6)N3[C@@H](C#N)[C@H](C2)N1C [T18] | < 1 nM | 1 to 10 nM | < 1 nM | – | – | – | – |
| COc1cc2c(cc1N)C(C)(C)CN[C@]21CS[C@@H]2c3c(OC(C)=O)c(C)c4c(c3[C@H](COC1=O)N1[C@@H]2[C@H]2c3c(cc(C)c(OC)c3O)C[C@@H]([C@@H]1C#N)N2C)OCO4 [P19] | < 1 nM | < 1 nM | < 1 nM | superior to or comparable to those of trabectedin and lurbinectedin | – | – | – |
| COc1cc2c(cc1N)C(N(C)C)CN[C@]21CS[C@@H]2c3c(OC(C)=O)c(C)c4c(c3[C@H](COC1=O)N1[C@@H]2[C@H]2c3c(cc(C)c(OC)c3O)C[C@@H]([C@@H]1C#N)N2C)OCO4 (some centres unmarked) [P30] | < 1 nM | < 1 nM | < 1 nM | superior to or comparable to those of trabectedin and lurbinectedin | – | – | – |
| COc1c(C)cc2c(c1O)[C@@H]1[C@@H]3[C@@H]4SC[C@]5(NCCc6cc(N)c(C)cc65)C(=O)OC[C@@H](c5c6c(c(C)c(OC(C)=O)c54)OCO6)N3[C@@H](C#N)[C@H](C2)N1C [P172] | < 1 nM | < 1 nM | < 1 nM | superior to or comparable to those of trabectedin and lurbinectedin | – | – | – |
| COc1c(C)cc2c(c1O)[C@@H]1[C@@H]3[C@@H]4SC[C@]5(NCCc6cc(N)c(OC)c(OC)c65)C(=O)OC[C@@H](c5c6c(c(C)c(OC(C)=O)c54)OCO6)N3[C@@H](C#N)[C@H](C2)N1C [T14] | 10 to 200 nM | 10 to 200 nM | 1 to 10 nM | – | – | – | – |
| COc1c(C)cc2c(c1O)[C@@H]1[C@@H]3[C@@H]4SC[C@]5(NCCc6cc(NC(=O)CO)c(OC)c(OC)c65)C(=O)OC[C@@H](c5c6c(c(C)c(OC(C)=O)c54)OCO6)N3[C@@H](C#N)[C@H](C2)N1C [T15] | 10 to 200 nM | 10 to 200 nM | 10 to 200 nM | – | – | – | – |
| COc1c(C)cc2c(c1O)[C@@H]1[C@@H]3[C@@H]4SC[C@]5(NCCc6cc(N)c(O)cc65)C(=O)OC[C@@H](c5c6c(c(C)c(OC(C)=O)c54)OCO6)N3[C@@H](C#N)[C@H](C2)N1C [T8] | 1 to 10 nM | 1 to 10 nM | 1 to 10 nM | – | – | – | – |
| COc1cc2c(cc1O)C(N)CN[C@]21CS[C@@H]2c3c(OC(C)=O)c(C)c4c(c3[C@H](COC1=O)N1[C@@H]2[C@H]2c3c(cc(C)c(OC)c3O)C[C@@H]([C@@H]1C#N)N2C)OCO4 (some centres unmarked) [T2] | 10 to 200 nM | 10 to 200 nM | 1 to 10 nM | – | – | – | – |
| COc1c(C)cc2c(c1O)[C@@H]1[C@@H]3[C@@H]4SC[C@]5(NCCc6c5ccc(N)c6O)C(=O)OC[C@@H](c5c6c(c(C)c(OC(C)=O)c54)OCO6)N3[C@@H](C#N)[C@H](C2)N1C [T6] | 1 to 10 nM | 1 to 10 nM | 1 to 10 nM | – | – | – | – |
| COc1cc2c(cc1N)[C@@H](OS(=O)(=O)O)CN[C@]21CS[C@@H]2c3c(OC(C)=O)c(C)c4c(c3[C@H](COC1=O)N1[C@@H]2[C@H]2c3c(cc(C)c(OC)c3O)C[C@@H]([C@@H]1C#N)N2C)OCO4 [P14] | > 200 nM | > 200 nM | > 200 nM | – | – | – | – |
| COc1cc2c(cc1NC(=O)CO)CCN(C)[C@]21CS[C@@H]2c3c(OC(C)=O)c(C)c4c(c3[C@H](COC1=O)N1[C@@H]2[C@H]2c3c(cc(C)c(OC)c3O)C[C@@H]([C@@H]1C#N)N2C)OCO4 [P90] | < 1 nM | < 1 nM | < 1 nM | – | – | – | – |
| COc1cc2c(cc1N)[C@H](CC1CC1)CN[C@]21CS[C@@H]2c3c(OC(C)=O)c(C)c4c(c3[C@H](COC1=O)N1[C@@H]2[C@H]2c3c(cc(C)c(OC)c3O)C[C@@H]([C@@H]1C#N)N2C)OCO4 [P261] | 10 to 200 nM | 10 to 200 nM | 1 to 10 nM | – | – | – | – |
| COc1c(C)cc2c(c1O)[C@@H]1[C@@H]3[C@@H]4SC[C@]5(NCCc6cc(NC(=O)[C@H]7C[C@@H](O)C7)c(F)cc65)C(=O)OC[C@@H](c5c6c(c(C)c(OC(C)=O)c54)OCO6)N3[C@@H](C#N)[C@H](C2)N1C [T5] | 1 to 10 nM | < 1 nM | < 1 nM | – | – | – | – |
| COc1ccc2[nH]c3c(c2c1)CCN[C@]31CS[C@@H]2c3c(OC(C)=O)c(C)c4c(c3[C@H](COC1=O)N1[C@@H]2[C@H]2c3c(cc(C)c(OC)c3O)C[C@@H]([C@@H]1O)N2C)OCO4 [Lurbinectedin, reference compound] | < 1 nM | 1 to 10 nM | 1 to 10 nM | – | – | – | – |
| COc1c(C)cc2c(c1O)[C@@H]1[C@@H]3[C@@H]4SC[C@]5(NCCc6cc(NC(=O)CO)c(O)cc65)C(=O)OC[C@@H](c5c6c(c(C)c(OC(C)=O)c54)OCO6)N3[C@@H](C#N)[C@H](C2)N1C [T9] | 1 to 10 nM | 1 to 10 nM | 1 to 10 nM | – | – | – | – |
| COc1cc2c(cc1NC(=O)CO)C1(CC1)CN[C@]21CS[C@@H]2c3c(OC(C)=O)c(C)c4c(c3[C@H](COC1=O)N1[C@@H]2[C@H]2c3c(cc(C)c(OC)c3O)C[C@@H]([C@@H]1C#N)N2C)OCO4 [T11] | < 1 nM | < 1 nM | < 1 nM | – | – | – | – |
| COc1c(C)cc2c(c1O)[C@@H]1[C@@H]3[C@@H]4SC[C@]5(NCCc6cc(N)cc(O)c65)C(=O)OC[C@@H](c5c6c(c(C)c(OC(C)=O)c54)OCO6)N3[C@@H](C#N)[C@H](C2)N1C [T12] | 1 to 10 nM | 1 to 10 nM | 1 to 10 nM | – | – | – | – |
